Data taken from article PMC12295927, “Design, Synthesis, and Testing of 1,2,3-Triazolo-Quinobenzothiazine Hybrids for Cytotoxic and Immunomodulatory Activity” (International Journal of Molecular Sciences, 2025).
Like-named read-outs stand apart in the source and are kept apart here.

What was measured:
[1] = system: AIFM2 gene; assay: RT-qPCR AIFM2 gene expression in BEAS-2B; format: cell-based, Human; details: Homo sapiens, 24 h, reference gene RPL41, vs untreated control, read-out: Relative level of expression, AIFM2 gene
Experimental: (§1) Real-time polymerase chain reaction was performed for the reference gene RPL41 (ribosomal protein L41) and the tested genes: BCL2, AIFM2, MDM2, IL6 and IL8. […] The BEAS-2B line was selected for the experiment. The expression level of selected genes was measured after 24 h of incubation with the tested substances MJ1–MJ20 at a concentration of 100 μM (Table 3).
The RT-qPCR experiment was performed for the BEAS-2B cell line. In this experiment, the AIFM2 gene was studied and RPL41 was used as reference gene (Figure 16).
(§2) Gene expression studies used quantitative RT-qPCR to assess the effect of the tested quinobenzothiazines (MJ1–MJ20) on the expression of apoptosis-related genes (BCL2, AIFM2, MDM2) and pro-inflammatory cytokines (IL6, IL8) (Table 4).
(§3) BEAS-2B and HCT116 cells were seeded in 6-well plates at 2 × 10^5 cells per well and cultured in RPMI-1640 (BEAS-2B) or DMEM (HCT116) medium supplemented with 10% FBS and 1% penicillin/streptomycin at 37 °C, 5% CO2 and 95% humidity. After 24 h of incubation, the tested compounds were added at a concentration of 100 µM. After 24 h, the medium was removed from the cells, washed with PBS solution, 0.5 mL of trypsin was added per well and after 5 min it was neutralized with medium. The obtained cell suspension was centrifuged for 3 min at 2000 rpm, the supernatant was removed, and the obtained pellet was suspended in 400 µL of phenozol. Samples were frozen at −20 °C and stored until further experiment and RNA isolation.
(§4) Total RNA was isolated from cells using the A&A Biotechnology Total RNA Mini kit according to the manufacturer’s protocol. RNA quality and quantity were assessed using a NanoDrop 2000 spectrophotometer at 260/280 nm. Reverse transcription was performed using the protocol (EURx NG dART RT Kit) to obtain cDNA. After incubation, samples were placed in a freezer (−20 °C) and stored until further analysis.
(§5) The experiment was performed according to the protocol (Brilliant III Ultra Fast SYBR® Green QPCR Master Mix, Quick Reference Guide for the Bio-Rad CFX96 Real-Time PCR Detection System). RT-qPCR reaction was performed using specific primers for target genes (BCL2, AIFM2, MDM2, IL6, IL8). Gene expression was normalized to the expression of the reference gene RPL41. Reaction profiles and results were performed using Bio-Rad CFX Maestro 1.1 software from Bio-Rad. Analysis and calculations of the results obtained during RT-qPCR were performed using Microsoft Excel.
(§6) The results were analyzed using the R = 2^−ΔΔCt method, which allows for determining the relative level of gene expression (R) compared to the control. Each experiment was performed in three technical and biological replicates. RT-qPCR allowed for precise assessment of changes in the expression of genes related to the processes of apoptosis and inflammatory response under the influence of quinobenzothiazines, which allowed for identifying their potential mechanisms of action at the molecular level.

[2] = system: BEAS-2B; assay: Alamar Blue cytotoxicity test, BEAS-2B; format: cell-based, Human; details: 24 h incubation, read-out: IC50 values for BEAS-2B line
Experimental: The cytotoxicity of the tested chemical compounds MJ1–MJ20 was tested using the Alamar Blue test. The experiment was conducted on cell lines BEAS-2B (Figure 7), HCT116 (Figure 8), U2OS (Figure 9), MCF7 (Figure 10), SH-SY5Y (Figure 11), NHDF (Figure 12), and A549 (Figure 13). Cells were seeded in 96-well plates and incubated with the tested compounds for 24 h. The test result is the IC50 parameter, which is a measure of cytotoxic activity expressed by the concentration of the substance that causes the death of half of the analyzed cells compared to the control.
In cytotoxicity studies, the Alamar Blue test was used, which is based on the ability of living cells to reduce the non-fluorescent dye resazurin to fluorescent resorufin, which reflects the metabolic activity of cells. BEAS-2B, NHDF, HCT116, MCF7, A549, SH-SY5Y and U2OS cell lines were cultured under standard conditions, in DMEM medium supplemented with 10% FBS and 1% penicillin/streptomycin, at 37 °C, 5% CO2 and 95% humidity. Cells were seeded in 96-well plates at 1 × 10^4 cells per well and incubated for 24 h. Then, the tested compounds (MJ1–MJ20) were added at different concentrations (from 6.25 µM to 100 µM). The control contained cells untreated with the tested compounds. After 24 h of incubation, 10 µL of Alamar Blue solution was added to each well and incubated for another 2–4 h under the same conditions. The signal was measured spectrophotometrically at wavelengths of 570 nm (for resorufin) and 600 nm (for resazurin) or optionally fluorimetrically, using an excitation maximum of 570 nm and an emission maximum of 585 nm. The results were presented as percentage of cell survival relative to the control, calculating the ratio of absorbance or fluorescence of the sample to the control value. The Alamar Blue assay, due to its sensitivity and non-toxicity, allows for an accurate assessment of metabolic activity and cell survival in response to the tested quinobenzothiazines.

[3] = system: IL8 gene; assay: RT-qPCR IL8 gene expression in BEAS-2B; format: cell-based; details: Homo sapiens, 24 h, reference gene RPL41, vs untreated control, read-out: Relative level of expression, IL8 gene
Experimental: as §1
(§7) The RT-qPCR experiment was performed for the BEAS-2B cell line. In this experiment, the IL6 and IL8 genes were studied and RPL41 was used as a reference gene (Figure 17 and Figure 18).
as §2, §3, §4, §5, §6

[4] = system: MDM2 gene; assay: RT-qPCR MDM2 gene expression in BEAS-2B; format: cell-based, Human; details: 24 h; for fold induction at 100 µM: Homo sapiens, reference gene RPL41, vs untreated control, read-out: Relative level of expression, MDM2 gene
Experimental: as §1
The RT-qPCR experiment was performed for the BEAS-2B cell line. In this experiment, the MDM2 gene was studied and RPL41 was used as reference gene (Figure 15).
as §2, §3, §4, §5, §6

[5] = system: BCL2 gene; assay: RT-qPCR BCL2 gene expression in BEAS-2B; format: cell-based, Human; details: 24 h; for fold induction at 100 µM: Homo sapiens, reference gene RPL41, vs untreated control, read-out: Relative level of expression, BCL2 gene
Experimental: as §1
The RT-qPCR experiment was performed for the BEAS-2B cell line. In this experiment, the BCL2 gene was studied, and RPL41 was used as the reference gene (Figure 14).
as §2, §3, §4, §5, §6

[6] = system: IL6 gene; assay: RT-qPCR IL6 gene expression in BEAS-2B; format: cell-based, Human; details: 24 h; for fold induction at 100 µM: Homo sapiens, reference gene RPL41, vs untreated control, read-out: Relative level of expression, IL6 gene
Experimental: as §1, §7, §2, §3, §4, §5, §6

SMILES: CSc1ccc2c(c1)Sc1cc3ccccc3nc1N2Cc1cn(Cc2ccc(F)cc2)nn1 [MJ17, 9-Methylthio-6-((1-(4-fluorobenzyl)-1H-1,2,3-triazol-4-yl)methyl)-quino[3,2-b]-benzo[1,4]thiazine]
- fold induction at 100 µM [1]: 2.5
- IC50 ([2]; Homo sapiens, 24 h): 72.6 µM
- fold induction at 100 µM [3]: 5.7
- MDM2 expression increase ([4]; 100 μM, compared to control): 11.0 fold
- fold induction at 100 µM [4]: 11
- fold induction at 100 µM [5]: 33.9
- fold induction at 100 µM [6]: 28

SMILES: N#Cc1ccc(Cn2cc(CN3c4ccc(Cl)cc4Sc4cc5ccccc5nc43)nn2)cc1 [MJ14, 4-((4-((9-Chloroquino[3,2-b]benzo[1,4]thiazin-6-yl)methyl)-1H-1,2,3-triazol-1-yl)methyl)-benzonitrile]
- fold induction at 100 µM [1]: 1.2
- IC50 ([2]; Homo sapiens, 24 h): 78.4 µM
- fold induction at 100 µM [3]: 3.6
- fold induction at 100 µM [4]: 3.7
- fold induction at 100 µM [5]: 43
- fold induction at 100 µM [6]: 8.8

SMILES: c1ccc(SCn2cc(CN3c4ccccc4Sc4cc5ccccc5nc43)nn2)cc1 [MJ5, 6-((1-((Phenylthio)methyl)-1H-1,2,3-triazol-4-yl)methyl)-quino[3,2-b]benzo[1,4]thiazine]
- fold induction at 100 µM [1]: 1.9
- IC50 ([2]; Homo sapiens, 24 h): 73 µM
- fold induction at 100 µM [3]: 0.1
- fold induction at 100 µM [4]: 4.8
- fold induction at 100 µM [5]: 5
- fold induction at 100 µM [6]: 2.7

SMILES: Fc1ccc(Cn2cc(CN3c4ccc(Cl)cc4Sc4cc5ccccc5nc43)nn2)cc1 [MJ12, 9-Chloro-6-((1-(4-fluorobenzyl)-1H-1,2,3-triazol-4-yl)methyl)-quino[3,2-b]benzo-[1,4]thiazine]
- fold induction at 100 µM [1]: 0.6
- IC50 [2]: 75.6 µM
- IC50 ([2]; Homo sapiens, 24 h): 75.6 µM
- fold induction at 100 µM [3]: 4.9
- fold induction at 100 µM [4]: 3.8
- fold induction at 100 µM [5]: 25.9
- fold induction at 100 µM [6]: 6.2

SMILES: CSc1ccc2c(c1)Sc1cc3ccccc3nc1N2Cc1cn(CSc2ccccc2)nn1 [MJ20, 9-Methylthio-6-((1-((phenylthio)methyl)-1H-1,2,3-triazol-4-yl)methyl)-quino[3,2-b]benzo[1,4]thiazine]
- fold induction at 100 µM [1]: 2.8
- IC50 ([2]; Homo sapiens, 24 h): 83.7 µM
- fold induction at 100 µM [3]: 6.6
- fold induction at 100 µM [4]: 7.7
- BCL2 expression increase ([5]; 100 μM, compared to control): 69.4 fold
- fold induction at 100 µM [5]: 69.4
- IL6 expression increase ([6]; 100 μM, compared to control): 83.4 fold
- fold induction at 100 µM [6]: 83.4

SMILES: c1ccc(Cn2cc(CN3c4ccccc4Sc4cc5ccccc5nc43)nn2)cc1 [MJ1]
- fold induction at 100 µM [1]: 2.4
- IC50 ([2]; Homo sapiens, 24 h): 73.8 µM
- fold induction at 100 µM [3]: 0.3
- fold induction at 100 µM [4]: 5.4
- fold induction at 100 µM [5]: 23
- fold induction at 100 µM [6]: 3

SMILES: Clc1ccc(Cn2cc(CN3c4ccc(Cl)cc4Sc4cc5ccccc5nc43)nn2)cc1 [MJ13, 9-Chloro-6-[(1-(4-chlorobenzyl)-1H-1,2,3-triazol-4-yl)methyl]-quino[3,2-b]benzo-[1,4]thiazine]
- fold induction at 100 µM [1]: 0.3
- IC50 ([2]; Homo sapiens, 24 h): 85.2 µM
- fold induction at 100 µM [3]: 1.7
- fold induction at 100 µM [4]: 2.3
- fold induction at 100 µM [5]: 23.4
- fold induction at 100 µM [6]: 6.5

SMILES: CSc1ccc2c(c1)Sc1cc3ccccc3nc1N2Cc1cn(Cc2ccc(Cl)cc2)nn1 [MJ18, 9-Methylthio-6-[(1-(4-chlorobenzyl)-1H-1,2,3-triazol-4-yl)methyl]-quino[3,2-b]-benzo[1,4]thiazine]
- fold induction at 100 µM [1]: 1.7
- IC50 ([2]; Homo sapiens, 24 h): 74.1 µM
- fold induction at 100 µM [3]: 4
- fold induction at 100 µM [4]: 7.1
- fold induction at 100 µM [5]: 41.5
- fold induction at 100 µM [6]: 20.5

SMILES: Clc1ccc(Cn2cc(CN3c4ccccc4Sc4cc5ccccc5nc43)nn2)cc1 [MJ3, 6-[(1-(4-Chlorobenzyl)-1H-1,2,3-triazol-4-yl)methyl]-quino[3,2-b]benzo[1,4]thiazine]
- fold induction at 100 µM [1]: 1.3
- IC50 ([2]; Homo sapiens, 24 h): 75.4 µM
- fold induction at 100 µM [3]: 0.3
- fold induction at 100 µM [4]: 5.9
- fold induction at 100 µM [5]: 5.7
- fold induction at 100 µM [6]: 1.3

SMILES: N#Cc1ccc(Cn2cc(CN3c4ccc(F)cc4Sc4cc5ccccc5nc43)nn2)cc1 [MJ9, 4-((4-((9-Fluoroquino [3,2-b]benzo[1,4]thiazin-6-yl)methyl)-1H-1,2,3-triazol-1-yl)methyl)-benzonitrile]
- fold induction at 100 µM [1]: 4.5
- IC50 ([2]; Homo sapiens, 24 h): 73 µM
- fold induction at 100 µM [3]: 0.9
- fold induction at 100 µM [4]: 5.6
- fold induction at 100 µM [5]: 9.8
- fold induction at 100 µM [6]: 4.3

SMILES: Fc1ccc2c(c1)Sc1cc3ccccc3nc1N2Cc1cn(Cc2ccccc2)nn1 [MJ6, 9-Fluoro-6-[(1-benzyl-1H-1,2,3-triazol-4-yl)-methyl]-quino[3,2-b]benzo[1,4]thiazine]
- fold induction at 100 µM [1]: 1.8
- IC50 ([2]; Homo sapiens, 24 h): 72.9 µM
- fold induction at 100 µM [3]: 0.1
- fold induction at 100 µM [4]: 5.1
- fold induction at 100 µM [5]: 8.5
- fold induction at 100 µM [6]: 3.2

SMILES: Fc1ccc(Cn2cc(CN3c4ccc(F)cc4Sc4cc5ccccc5nc43)nn2)cc1 [MJ7, 9-Fluoro-6-((1-(4-fluorobenzyl)-1H-1,2,3-triazol-4-yl)methyl)-quino[3,2-b]benzo[1,4]thiazine]
- fold induction at 100 µM [1]: 3.3
- IC50 ([2]; Homo sapiens, 24 h): 73.6 µM
- fold induction at 100 µM [3]: 2.6
- fold induction at 100 µM [4]: 4.6
- fold induction at 100 µM [5]: 7.5
- fold induction at 100 µM [6]: 3.5

SMILES: Fc1ccc2c(c1)Sc1cc3ccccc3nc1N2Cc1cn(CSc2ccccc2)nn1 [MJ10, 9-Fluoro-6-((1-((phenylthio)methyl)-1H-1,2,3-triazol-4-yl)methyl)-quino[3,2-b]-benzo[1,4]thiazine]
- fold induction at 100 µM [1]: 3.1
- IC50 ([2]; Homo sapiens, 24 h): 72.3 µM
- fold induction at 100 µM [3]: 5.7
- fold induction at 100 µM [4]: 3.6
- fold induction at 100 µM [5]: 10.6
- fold induction at 100 µM [6]: 5.6

SMILES: N#Cc1ccc(Cn2cc(CN3c4ccccc4Sc4cc5ccccc5nc43)nn2)cc1 [MJ4, 4-((4-((Quino[3,2-b]benzo[1,4]thiazin-6-yl)methyl)-1H-1,2,3-triazol-1-yl)methyl)benzonitrile]
- fold induction at 100 µM [1]: 1.4
- IC50 ([2]; Homo sapiens, 24 h): 64.5 µM
- fold induction at 100 µM [3]: 0.8
- fold induction at 100 µM [4]: 4.3
- fold induction at 100 µM [5]: 9.3
- fold induction at 100 µM [6]: 3.1
